Test results reported in US4757089A, “Increasing aqueous humor outflow” (Massachusetts Eye and Ear Infirmary, priority 1986, dated 1988).
Where a name gives a salt, the structure may show the parent alone. Read-outs that look alike come from different tables or passages of the source.

Experiments:
calf eye = settings: perfused calf eye, 15 mm Hg, 22° C.; cited from earlier work
monkey eye = settings: perfused monkey eye, 15 mm Hg, 22° C.; cited from earlier work
eye [1] = test: Ocular changes and side effects after anterior chamber perfusion in monkeys; format: in vivo, cynomologous monkeys
From the text: (§1) Ethacrynic acid (sodium salt) was used to increase aqueous humor outflow in cynomologous monkeys, as described below. Ethacrynic acid can be purchased from Merck, Sharp, and Dome, and is described in U.S. Pat. No. 3,255,241, hereby incorporated by reference. Ethacrynic acid has the chemical formula [2,3-dichloro-4-(2-methylene-1-oxobutyl) phenoxy] acetic acid. Any suitable analogs described in U.S. Pat. No. 3,255,241 can also be used as described herein.
(§2) Each animal was randomly assigned one eye for the experimental and the other for its control perfusion. The animals were fasted the night before the experiment. They were anesthetized intramusclarly with Methohexital Sodium 15 mg/kg and Pentobarbital Sodium 35 mg/kg. Supplemental anesthesia as required was carried out with Pentobarbital 10 mg/kg/hour. Needles were placed through the cornea into the anterior chamber and a two-step constant pressure perfusion method was performed in order to determine aqueous humor outflow facility. The basic medium for perfusion was Dulbecco's phosphate buffered saline with added 5.5 mM glucose. A 10 microliter bolus of the experimental or control solution (that would produce the desired final concentration in the anterior chamber) was injected through a T shaped connector piece in the infusion line.
(§3) Each vial of ethacrynic acid contained ethacrynate sodium powder equivalent to 50 mg of ethacrynic acid. […] The powder was diluted with the above basic medium (Dulbecco's with added glucose) to yield the desired concentration. The solution was mixed at room temperature until dissolved, and the pH was determined (always 7.2) before use; the solution was filtered with a 0.2 micron filter (Nuclepore); this produced a solution which was stable for twenty four hours.
During perfusion experiments, a 10 microliter bolus injection was made using a Hamilton syringe. Since the monkey anterior chamber is approximately 200 microliters, our calculations were as follows. To achieve a final concentration of 0.5 mM ethacrynic acid, 10 microliters of 10 mM ethacrynic acid was infused.
Experiments were carried out using final ethacrynic acid concentrations in the aqueous humor of 0.1 mM to 0.5 mM. There were at least three animals and separate experiments carried out for each of the concentrations […], 0.25 mM, and […].

intraocular pressure [2] = test: Intraocular pressure after topical instillation in rabbits (Digilab Pneumotonometer); format: in vivo, Dutch-belted rabbits; settings: 10 mM and 3% methylcellulose, twenty four hours after instillation, fourteen rabbits, changed from 23.0, p less than 0.001, control eye 22.9 to 24.2
Procedure: For rabbit experiments Dutch-belted rabbits of either sex weighing 1.5 to 2 kg were used for topical studies. Each animal was randomly assigned one eye for the experimental and the other for its control solution. Intraocular pressure was measured using a Digilab Pneumotonometer. Any animals showing asymmetry of intraocular pressure greater than 2 mm were excluded form the study.
The protocol was as follows. Baseline intraocular pressure was taken in each eye using 0.5% proparacaine hydrochloride for topical anesthesia. Then a 100 microliter drop of either control solution or ethacrynic acid dissolved in 3% methylcellulose was instilled into one of the two eyes. In a half hour this was repeated. Two hours later intraocular pressure was measured in each eye. In some animals intraocular pressure was also measured five hours later and all animals had measurement of intraocular pressure the following day.
Ethcrynic acid powder was dissolved in 3% methylcellulose to yield the desired concentration. The solution was mixed at room temperature for one hour and was stable for twenty four hours. A similar osmotically balanced control solution was prepared. […] The pH of the solution was determined by mixing one part of the control or experimental solution with five parts of distilled water. […]

intraocular pressure [3] = test: Intraocular pressure in monkeys a few days after perfusion; format: in vivo, cynomologous monkeys; settings: both eyes
Procedure: as §2

eye [4] = test: Ocular side effects after topical instillation in rabbits; format: in vivo, Dutch-belted rabbits
[5] = format: physicochemical
Procedure: as §3
Ethcrynic acid powder was dissolved in 3% methylcellulose to yield the desired concentration. The solution was mixed at room temperature for one hour and was stable for twenty four hours. A similar osmotically balanced control solution was prepared. 3% methylcellulose was prepared as follows: methylcellulose powder (4000 CPS) was obtained from Dow company (lot number 14728). A 3% solution was prepared from powder dissolved in distilled water using low heat for several hours. The solution was refrigerated over night to yield a transparent, viscous fluid. The pH of the solution was determined by mixing one part of the control or experimental solution with five parts of distilled water. The pH ranged between 6.2 and 6.5 for both the control and experimental solutions. The 3% methylcellulose solution was refrigerated when not in use.

aqueous humor outflow = test: Two-step constant pressure perfusion, aqueous humor outflow facility in monkeys; format: in vivo, cynomologous monkeys
From the text: as §1
Each animal was randomly assigned one eye for the experimental and the other for its control perfusion. The animals were fasted the night before the experiment. They were anesthetized intramusclarly with Methohexital Sodium 15 mg/kg and Pentobarbital Sodium 35 mg/kg. Supplemental anesthesia as required was carried out with Pentobarbital 10 mg/kg/hour. Needles were placed through the cornea into the anterior chamber and a two-step constant pressure perfusion method was performed in order to determine aqueous humor outflow facility. […]
Each vial of ethacrynic acid contained ethacrynate sodium powder equivalent to 50 mg of ethacrynic acid. […] The solution was mixed at room temperature until dissolved, and the pH was determined (always 7.2) before use; the solution was filtered with a 0.2 micron filter (Nuclepore); this produced a solution which was stable for twenty four hours. […]

Water solubility = format: physicochemical; settings: volume not given

CCN1C(=O)C=CC1=O [NEM, N-ethylmaleimide]
dosage producing a significant increase in the facility of outflow (calf eye): ≥ 4.7 mM | effect on outflow in the monkey eye (monkey eye): increase in outflow

C=C(CC)C(=O)c1ccc(OCC(=O)O)c(Cl)c1Cl [ethacrynic acid, [2,3-dichloro-4-(2-methylene-1-oxobutyl)phenoxy] acetic acid]
pupil dilation in treated eye (eye [1]; dosages above 0.25 mM): some of the animals developed a dilated pupil | adhesions of the iris to the peripheral cornea (eye [1]; experimental and control eyes, believed to result from perfusion technique): A small number of animals in both the experimental and control eyes developed adhesions of the iris to the peripheral cornea | chronic corneal edema, opacities or cataract formation (eye [1]; monkey perfusion): no chronic corneal edema or opacities or cataract formation | corneal or crystalline lens changes (eye [1]; monkey perfusion): no apparent corneal or crystalline lens changes | intraocular pressure in treated eye, 24 h (intraocular pressure [2]): 20.0 mmHg | intraocular pressure (intraocular pressure [3]): symmetrical and normal in both eyes | conjunctival injection (eye [4]; 5 mM, topical): slight conjunctival injection | conjunctival injection and irritation (eye [4]; 10 mM, topical): moderate conjunctival injection and signs of irritation | reversibility of corneal toxicity and inflammation (eye [4]; higher concentrations (above 10 mM)): resolved without apparent seguelae | corneal toxicity and anterior chamber inflammation (eye [4]; higher concentrations (above 10 mM), for several days): signs of corneal toxicity (corneal edema) and anterior chamber inflammation | stability of solution [5]: twenty four | stability of solution ([5]; pH 7.2): twenty four | outflow facility response (aqueous humor outflow; 0.25 mM final concentration): approximately half the animals perfused responded with a substantial increase in outflow facility | outflow facility effect (aqueous humor outflow; lower dosages (below 0.25 mM; 0.1 mM tested)): no effect

C=C(CC)C(=O)c1ccc(OCC(=O)O)c(Cl)c1Cl [sodium salt of ethacrynic acid]
solubility in water (Water solubility): about 0.04 g
